Assay results from article PMC5615061, “Discovery of a Low Toxicity O-GlcNAc Transferase (OGT) Inhibitor by Structure-based Virtual Screening of Natural Products” (Scientific Reports, 2017).
Where two headings read alike, the source gives them in different places.

Target: T1, OGT (O-GlcNAc transferase) (Homo sapiens, UniProt O15294)
T1 construct: full-length OGT, recombinant, purified; plasmid gift of D. J. Vocadlo
T1 sequence (O15294 2-1036 isoform O15294-3): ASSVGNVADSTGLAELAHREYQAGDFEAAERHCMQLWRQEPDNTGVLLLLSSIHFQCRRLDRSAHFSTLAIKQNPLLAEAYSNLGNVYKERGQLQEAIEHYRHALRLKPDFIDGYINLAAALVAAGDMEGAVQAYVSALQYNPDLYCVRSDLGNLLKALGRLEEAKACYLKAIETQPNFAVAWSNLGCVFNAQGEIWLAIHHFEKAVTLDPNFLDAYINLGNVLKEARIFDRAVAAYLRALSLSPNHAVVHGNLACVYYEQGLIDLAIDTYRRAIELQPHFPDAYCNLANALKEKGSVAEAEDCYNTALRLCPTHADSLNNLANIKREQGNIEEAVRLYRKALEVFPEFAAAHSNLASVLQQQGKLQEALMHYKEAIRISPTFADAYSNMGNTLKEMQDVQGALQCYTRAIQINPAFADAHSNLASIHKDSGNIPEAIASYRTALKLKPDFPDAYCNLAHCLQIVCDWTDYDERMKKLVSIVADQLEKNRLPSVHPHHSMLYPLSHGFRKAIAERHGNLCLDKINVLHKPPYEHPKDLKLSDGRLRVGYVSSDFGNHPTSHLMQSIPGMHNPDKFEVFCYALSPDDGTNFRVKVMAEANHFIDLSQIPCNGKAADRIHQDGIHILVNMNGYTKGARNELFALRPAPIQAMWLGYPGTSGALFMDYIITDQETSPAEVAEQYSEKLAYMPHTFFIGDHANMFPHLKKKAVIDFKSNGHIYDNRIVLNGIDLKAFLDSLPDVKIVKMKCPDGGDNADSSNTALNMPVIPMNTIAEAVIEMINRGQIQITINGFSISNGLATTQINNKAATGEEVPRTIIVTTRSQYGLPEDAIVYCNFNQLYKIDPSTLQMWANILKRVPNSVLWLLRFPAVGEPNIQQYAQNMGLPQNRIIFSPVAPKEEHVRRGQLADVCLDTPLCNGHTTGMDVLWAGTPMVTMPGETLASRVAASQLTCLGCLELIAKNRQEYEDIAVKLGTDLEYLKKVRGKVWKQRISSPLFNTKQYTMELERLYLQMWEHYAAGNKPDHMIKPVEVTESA
Assay: UDP-Glo glycosyltransferase assay, luminescence
Type: biochemical

IC50 (250 nM OGT, 125 μM CKII peptide, 40 μM UDP-GlcNAc, pH 7.4, time-dependent, not fully UDP-GlcNAc competitive) [µM]	IC50 [µM]	SMILES
21.8	–	O=C1C[C@@H](c2ccc(O)c(-c3c(O)cc(O)c4c3O[C@H](c3ccc(O)cc3)CC4=O)c2)Oc2cc(O)cc(O)c21 [L01]
–	3.5	COc1ccccc1[C@@H](NS(=O)(=O)c1ccc2[nH]c(=O)ccc2c1)C(=O)N(Cc1ccco1)Cc1cccs1 [OSMI-1]
